# Test results from PubChem BioAssay (NCI).
#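 Exposure lasted 48 hours, with cells grown in 96-well plates and compounds tested at five concentrations. The concentration for full growth arrest is given as TGI.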
# Experiments:
# Assay in all cases: NCI tumour cell line growth inhibition, 48 h
# A498 renal = test system: A498 renal
# A549 NSCLC = test system: A549 NSCLC
# CAKI-1 renal = test system: CAKI-1 renal
# CCRF-CEM leukemia = test system: CCRF-CEM leukemia
# COLO 205 colon = test system: COLO 205 colon
# DLD-1 colon = test system: DLD-1 colon
# DMS 273 small cell lung = test system: DMS 273 small cell lung
# EKVX NSCLC = test system: EKVX NSCLC
# HCT-116 colon = test system: HCT-116 colon
# HCT-15 colon = test system: HCT-15 colon
# HL-60(TB) leukemia = test system: HL-60(TB) leukemia
# HOP-18 NSCLC = test system: HOP-18 NSCLC
# HOP-62 NSCLC = test system: HOP-62 NSCLC
# HOP-92 NSCLC = test system: HOP-92 NSCLC
# HT29 colon = test system: HT29 colon
# IGROV1 ovarian = test system: IGROV1 ovarian
# K-562 leukemia = test system: K-562 leukemia
# KM12 colon = test system: KM12 colon
# KM20L2 colon = test system: KM20L2 colon
# LOX IMVI melanoma = test system: LOX IMVI melanoma
# M19-MEL melanoma = test system: M19-MEL melanoma
# MCF7 breast = test system: MCF7 breast
# MOLT-4 leukemia = test system: MOLT-4 leukemia
# NCI-H226 lung = test system: NCI-H226 lung
# NCI-H23 lung = test system: NCI-H23 lung
# NCI-H460 lung = test system: NCI-H460 lung
# NCI-H522 lung = test system: NCI-H522 lung
# NCI/ADR-RES ovarian = test system: NCI/ADR-RES ovarian
# OVCAR-3 ovarian = test system: OVCAR-3 ovarian
# OVCAR-4 ovarian = test system: OVCAR-4 ovarian
# OVCAR-5 ovarian = test system: OVCAR-5 ovarian
# OVCAR-8 ovarian = test system: OVCAR-8 ovarian
# P388 leukemia = test system: P388 leukemia
# P388/ADR leukemia = test system: P388/ADR leukemia
# RPMI-8226 leukemia = test system: RPMI-8226 leukemia
# RXF 393 renal = test system: RXF 393 renal
# SF-268 CNS = test system: SF-268 CNS
# SF-295 CNS = test system: SF-295 CNS
# SF-539 CNS = test system: SF-539 CNS
# SK-MEL-2 melanoma = test system: SK-MEL-2 melanoma
# SK-MEL-28 melanoma = test system: SK-MEL-28 melanoma
# SK-MEL-5 melanoma = test system: SK-MEL-5 melanoma
# SK-OV-3 ovarian = test system: SK-OV-3 ovarian
# SN12C renal = test system: SN12C renal
# SN12K1 renal = test system: SN12K1 renal
# SNB-19 CNS = test system: SNB-19 CNS
# SNB-75 CNS = test system: SNB-75 CNS
# SNB-78 CNS = test system: SNB-78 CNS
# SW-620 colon = test system: SW-620 colon
# U251 CNS = test system: U251 CNS
# UACC-257 melanoma = test system: UACC-257 melanoma
# UACC-62 melanoma = test system: UACC-62 melanoma
# UO-31 renal = test system: UO-31 renal
# XF 498 CNS = test system: XF 498 CNS
# DMS 114 small cell lung = test system: DMS 114 small cell lung
# HCC-2998 colon = test system: HCC-2998 colon
# MALME-3M melanoma = test system: MALME-3M melanoma
smiles,measurement,setting,value
COc1cc2c(cc1OC)C(Cc1c3ccccc3cc3ccccc13)N(C)CC2 (stereo not drawn),TGI,A498 renal,43.6 µM
same,TGI,A549 NSCLC,> 100 µM
same,TGI,CAKI-1 renal,> 100 µM
same,TGI,CCRF-CEM leukemia,93 µM
same,TGI,COLO 205 colon,29.7 µM
same,TGI,DLD-1 colon,> 100 µM
same,TGI,DMS 273 small cell lung,74.1 µM
same,TGI,EKVX NSCLC,96.8 µM
same,TGI,HCT-116 colon,40.3 µM
same,TGI,HCT-15 colon,> 87.6 µM
same,TGI,HL-60(TB) leukemia,31.3 µM
same,TGI,HOP-18 NSCLC,50.4 µM
same,TGI,HOP-62 NSCLC,48.7 µM
same,TGI,HOP-92 NSCLC,35 µM
same,TGI,HT29 colon,31 µM
same,TGI,IGROV1 ovarian,65.4 µM
same,TGI,K-562 leukemia,39.3 µM
same,TGI,KM12 colon,35.9 µM
same,TGI,KM20L2 colon,40.5 µM
same,TGI,LOX IMVI melanoma,41.2 µM
same,TGI,M19-MEL melanoma,49.8 µM
same,TGI,MCF7 breast,33.7 µM
same,TGI,MOLT-4 leukemia,58.3 µM
same,TGI,NCI-H226 lung,60.2 µM
same,TGI,NCI-H23 lung,> 85.3 µM
same,TGI,NCI-H460 lung,61.3 µM
same,TGI,NCI-H522 lung,60 µM
same,TGI,NCI/ADR-RES ovarian,> 74.1 µM
same,TGI,OVCAR-3 ovarian,> 61.1 µM
same,TGI,OVCAR-4 ovarian,> 100 µM
same,TGI,OVCAR-5 ovarian,40.2 µM
same,TGI,OVCAR-8 ovarian,> 90.7 µM
same,TGI,P388 leukemia,47.6 µM
same,TGI,P388/ADR leukemia,35 µM
same,TGI,RPMI-8226 leukemia,34 µM
same,TGI,RXF 393 renal,32.5 µM
same,TGI,SF-268 CNS,> 100 µM
same,TGI,SF-295 CNS,33.8 µM
same,TGI,SF-539 CNS,47.1 µM
same,TGI,SK-MEL-2 melanoma,32.6 µM
same,TGI,SK-MEL-28 melanoma,46.8 µM
same,TGI,SK-MEL-5 melanoma,35.3 µM
same,TGI,SK-OV-3 ovarian,84.5 µM
same,TGI,SN12C renal,> 100 µM
same,TGI,SN12K1 renal,30.3 µM
same,TGI,SNB-19 CNS,52.4 µM
same,TGI,SNB-75 CNS,37.2 µM
same,TGI,SNB-78 CNS,> 73.1 µM
same,TGI,SW-620 colon,> 71.5 µM
same,TGI,U251 CNS,35.6 µM
same,TGI,UACC-257 melanoma,35.5 µM
same,TGI,UACC-62 melanoma,40.8 µM
same,TGI,UO-31 renal,57.4 µM
same,TGI,XF 498 CNS,38.8 µM
O=C(O)CNS(=O)(=O)c1ccc(NC(=O)Nc2ccccc2)cc1,TGI,A498 renal,> 100 µM
same,TGI,A549 NSCLC,> 100 µM
same,TGI,CAKI-1 renal,> 100 µM
same,TGI,CCRF-CEM leukemia,> 100 µM
same,TGI,COLO 205 colon,> 100 µM
same,TGI,DLD-1 colon,> 100 µM
same,TGI,DMS 114 small cell lung,> 100 µM
same,TGI,DMS 273 small cell lung,> 100 µM
same,TGI,EKVX NSCLC,> 100 µM
same,TGI,HCC-2998 colon,> 100 µM
same,TGI,HCT-116 colon,> 100 µM
same,TGI,HCT-15 colon,> 100 µM
same,TGI,HL-60(TB) leukemia,> 31.6 µM
same,TGI,HOP-18 NSCLC,> 100 µM
same,TGI,HOP-62 NSCLC,> 100 µM
same,TGI,HOP-92 NSCLC,> 100 µM
same,TGI,HT29 colon,> 100 µM
same,TGI,IGROV1 ovarian,> 54.4 µM
same,TGI,K-562 leukemia,> 100 µM
same,TGI,KM12 colon,> 100 µM
same,TGI,KM20L2 colon,> 100 µM
same,TGI,LOX IMVI melanoma,> 100 µM
same,TGI,M19-MEL melanoma,> 55.5 µM
same,TGI,MALME-3M melanoma,> 100 µM
same,TGI,MCF7 breast,> 100 µM
same,TGI,MOLT-4 leukemia,> 100 µM
same,TGI,NCI-H226 lung,> 100 µM
same,TGI,NCI-H23 lung,> 100 µM
same,TGI,NCI-H460 lung,> 100 µM
same,TGI,NCI-H522 lung,> 100 µM
same,TGI,NCI/ADR-RES ovarian,> 100 µM
same,TGI,OVCAR-3 ovarian,> 100 µM
same,TGI,OVCAR-4 ovarian,> 100 µM
same,TGI,OVCAR-5 ovarian,> 100 µM
same,TGI,OVCAR-8 ovarian,> 100 µM
same,TGI,P388 leukemia,> 100 µM
same,TGI,P388/ADR leukemia,> 100 µM
same,TGI,RPMI-8226 leukemia,> 100 µM
same,TGI,RXF 393 renal,> 100 µM
same,TGI,SF-268 CNS,> 100 µM
same,TGI,SF-295 CNS,> 100 µM
same,TGI,SF-539 CNS,> 100 µM
same,TGI,SK-MEL-2 melanoma,> 100 µM
same,TGI,SK-MEL-28 melanoma,> 100 µM
same,TGI,SK-MEL-5 melanoma,> 100 µM
same,TGI,SK-OV-3 ovarian,> 100 µM
same,TGI,SN12C renal,> 100 µM
same,TGI,SN12K1 renal,> 100 µM
same,TGI,SNB-19 CNS,> 100 µM
same,TGI,SNB-75 CNS,> 100 µM
same,TGI,SNB-78 CNS,> 100 µM
same,TGI,SW-620 colon,> 100 µM
same,TGI,U251 CNS,> 100 µM
same,TGI,UACC-257 melanoma,> 100 µM
same,TGI,UACC-62 melanoma,> 52.9 µM
same,TGI,UO-31 renal,> 100 µM
same,TGI,XF 498 CNS,> 100 µM
CCNCCCCNCC,TGI,A498 renal,> 3750 µM
same,TGI,A549 NSCLC,> 3750 µM
same,TGI,CAKI-1 renal,> 3750 µM
same,TGI,CCRF-CEM leukemia,> 3750 µM
same,TGI,COLO 205 colon,> 3750 µM
same,TGI,DLD-1 colon,> 3750 µM
same,TGI,DMS 114 small cell lung,> 3750 µM
same,TGI,DMS 273 small cell lung,> 3750 µM
same,TGI,EKVX NSCLC,> 3750 µM
same,TGI,HCC-2998 colon,> 3750 µM
same,TGI,HCT-116 colon,> 3750 µM
same,TGI,HCT-15 colon,> 3750 µM
same,TGI,HL-60(TB) leukemia,> 1190 µM
same,TGI,HOP-18 NSCLC,> 37.5 µM
same,TGI,HOP-62 NSCLC,> 3750 µM
same,TGI,HOP-92 NSCLC,> 3750 µM
same,TGI,HT29 colon,> 3750 µM
same,TGI,IGROV1 ovarian,> 3750 µM
same,TGI,K-562 leukemia,> 3750 µM
same,TGI,KM12 colon,> 3750 µM
same,TGI,KM20L2 colon,> 3750 µM
same,TGI,LOX IMVI melanoma,> 3750 µM
same,TGI,M19-MEL melanoma,> 3750 µM
same,TGI,MALME-3M melanoma,> 3750 µM
same,TGI,MCF7 breast,> 3750 µM
same,TGI,MOLT-4 leukemia,> 3750 µM
same,TGI,NCI-H226 lung,> 3750 µM
same,TGI,NCI-H23 lung,> 3750 µM
same,TGI,NCI-H460 lung,> 1190 µM
same,TGI,NCI-H522 lung,> 3750 µM
same,TGI,NCI/ADR-RES ovarian,> 3750 µM
same,TGI,OVCAR-3 ovarian,> 3750 µM
same,TGI,OVCAR-4 ovarian,> 3750 µM
same,TGI,OVCAR-5 ovarian,> 3750 µM
same,TGI,OVCAR-8 ovarian,> 3750 µM
same,TGI,P388 leukemia,> 3750 µM
same,TGI,P388/ADR leukemia,> 3750 µM
same,TGI,RPMI-8226 leukemia,> 3750 µM
same,TGI,RXF 393 renal,> 3750 µM
same,TGI,SF-268 CNS,> 3750 µM
same,TGI,SF-295 CNS,> 3750 µM
same,TGI,SF-539 CNS,> 3750 µM
same,TGI,SK-MEL-2 melanoma,> 3750 µM
same,TGI,SK-MEL-28 melanoma,> 3750 µM
same,TGI,SK-MEL-5 melanoma,> 3750 µM
same,TGI,SK-OV-3 ovarian,> 3750 µM
same,TGI,SN12C renal,> 3750 µM
same,TGI,SN12K1 renal,> 3750 µM
same,TGI,SNB-19 CNS,> 3750 µM
same,TGI,SNB-75 CNS,> 3750 µM
same,TGI,SNB-78 CNS,> 3750 µM
same,TGI,SW-620 colon,> 3750 µM
same,TGI,U251 CNS,> 3750 µM
same,TGI,UACC-257 melanoma,> 3750 µM
same,TGI,UACC-62 melanoma,> 3750 µM
same,TGI,UO-31 renal,> 3400 µM
same,TGI,XF 498 CNS,> 3750 µM
